Values quoted from earlier work in patent US9532941B2, “Method for treatment of hair loss with a combination of natural ingredients” (priority 2011, dated 2017).

Legend:
[1] = tested on: human hair; details: in vitro exposure; cell proliferation markers
[2] = tested on: human 5-α-reductase; details: cell free assay in vitro
[3] = tested on: human hair follicles

## epigallocatechin-3-gallate [EGCG]
[1]
  human hair growth: stimulates human hair growth
[2]
  inhibition of human 5-α-reductase, cell free: potently inhibited

## Cn1c(=O)c2c(ncn2C)n(C)c1=O [caffeine]
[3]; caffeine 0.001% and 0.005%, 5 mg/ml testosterone
  counteraction of testosterone-induced growth suppression: counteracted
[3]; caffeine alone
  hair follicle growth, caffeine alone: significant stimulation of hair follicle growth

## C[C@]12CC[C@H]3[C@@H](CCC4=CC(=O)CC[C@@]43C)[C@@H]1CC[C@@H]2O [testosterone]
[3]; hair follicles treated with 5 mg/ml testosterone
  growth of hair follicles: Significant growth suppression
